The text below walks through data of patent US8093265B2, “Bicycloheteroaryl compounds as P2X7 modulators and uses thereof” (Renovis, Inc., priority 2007, dated 2012).

Series [1] deals with T1, P2X7 receptor (Homo sapiens, UniProt Q99572).
T1 construct: host or cells: THP-1 cells differentiated with LPS and IFN-γ
T1 sequence (Q99572 1-595): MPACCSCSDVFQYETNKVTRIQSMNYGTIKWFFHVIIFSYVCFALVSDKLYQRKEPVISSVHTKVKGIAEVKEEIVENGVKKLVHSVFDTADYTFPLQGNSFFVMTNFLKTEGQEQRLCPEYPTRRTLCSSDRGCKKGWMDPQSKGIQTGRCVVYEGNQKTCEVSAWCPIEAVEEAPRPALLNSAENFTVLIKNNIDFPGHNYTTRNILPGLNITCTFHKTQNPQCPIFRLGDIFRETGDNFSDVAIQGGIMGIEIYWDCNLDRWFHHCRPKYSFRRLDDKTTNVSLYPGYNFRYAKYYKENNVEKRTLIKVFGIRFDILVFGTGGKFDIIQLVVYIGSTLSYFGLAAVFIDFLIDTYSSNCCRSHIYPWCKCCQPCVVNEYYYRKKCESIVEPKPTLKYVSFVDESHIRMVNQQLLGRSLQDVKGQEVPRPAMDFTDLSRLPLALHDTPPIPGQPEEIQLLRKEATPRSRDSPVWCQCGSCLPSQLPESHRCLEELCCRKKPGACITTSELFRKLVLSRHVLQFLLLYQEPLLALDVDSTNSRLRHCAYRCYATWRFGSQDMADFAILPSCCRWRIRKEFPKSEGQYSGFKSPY
The series is described as follows: IL-1β release assay in differentiated THP-1 cells (Example 9). Format: cell-based. The conditions noted are these: THP-1 cells differentiated with LPS and IFN-γ; 30 min pretreatment; BzATP 250 uM; IL-1β by ELISA. An outline of the steps:
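THP-1 cells differentiated 16 h with LPS and IFN-γ (100 ng/mL each), re-primed 2 h with LPS, then pretreated 30 min with compound before 250 uM BzATP for 45 min. Supernatant IL-1β measured by ELISA; background-adjusted % inhibition fitted to a four-parameter logistic for IC50.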
Background: In an ELISA, binding on a coated surface is turned into a signal by an enzyme label.

Series [2] is described as follows: Pharmacokinetic evaluation following intravenous and oral administration in rats. The conditions noted are these: male Sprague-Dawley rats; PO 1 to 5 mg/kg vs IV 1 mg/kg; AUCinf(PO)/AUCinf(IV) dose-normalized. Format: in vivo, rat. Here is the method: Pharmacokinetic Evaluation of Compounds Following Intravenous and Oral Administration in Rats.
Male Sprague-Dawley rats are acclimated for at least 24 hours prior to experiment initiation. During the acclimation period, all animals receive food and water ad libitum. However, food but not water is removed from the animals' cages at least 12 hours before initiation of the experiment. During the first 3 hours of experimentation, the animals receive only water ad libitum. At least three animals each are tested for intravenous and oral dosage. For intravenous formulation, compounds are dissolved (0.25 to 1 mg/mL) in a mixture of 3% dimethyl sulfoxide, 40% PEG 400 and the rest percentage of 40% Captisol in water (w/v). The animals are weighed before dosing. The determined body weight is used to calculate the dose volume for each animal. Dose volume (mL/kg)=1 mg/kg/formulation concentration (mg/mL)
In instances where the formulation concentrations are less than 0.5 mg/mL, the dosing volume is about 2 mL/kg.
For oral formulation, compounds of this invention are suspended (0.5 to 0.75 mg/mL) in a mixture of 5% of 10% Tween 80 in water (v/v) and 95% of 0.5% methyl cellulose in water (w/v). PO rats are typically dosed through oral gavage following the same dose volume formula as IV to achieve a dose level of 1 to 5 mg/kg. For IV dosing, blood samples are collected (using a pre-heparinized syringe) via the jugular vein catheter at 2, 5, 15, 30, 60, 120, 180, 300, 480, and 1440 minutes post dosing. For PO dosing blood samples are collected (using a pre-heparinized syringe) via the jugular vein catheter before dosing and at 5, 15, 30, 60, 120, 180, 300, 480, and 1440 minutes post dosing. About 250 uL of blood is obtained at each time point from the animal. Equal volumes of 0.9% normal saline are replaced to prevent dehydration. The whole blood samples are maintained on ice until centrifugation. Blood samples are then centrifuged at 14,000 rpm for 10 minutes at 4° C., and the upper plasma layer is then transferred into a clean vial and stored at −80° C. The resulting plasma samples are then analyzed by liquid chromatography-tandem mass spectrometry. Following the measurement of plasma samples and dosing solutions, plasma concentration-time curve is plotted. Plasma exposure is calculated as the area under the concentration-time curve extrapolated to time infinite (AUCinf). The AUCinf is averaged and the oral bioavailability (% F) for individual animal is calculated as: • AUCinf(PO)/AUCinf(IV), normalized to their respective dose levels.
The % F can be reported as the mean % F of all animals dosed orally with the compound of the invention at the specified level.
For the purpose of Table 3, the oral bioavailability of each compound is expressed as follows: […]

Series [3] is described as follows: Half-life in human liver microsomes (HLM). Format: in vitro ADME. As to conditions: human liver microsomes 0.78 mg/mL, 1 μM compound, NADPH, 37° C.; for half-life at 1 μM: pH 7.4.
Method: Half-Life in Human Liver Microsomes (HLM)
Test compounds (1 μM) are incubated with 3.3 mM MgCl2 and 0.78 mg/mL HLM (HL101) in 100 mM potassium phosphate buffer (pH 7.4) at 37° C. on the 96-deep well plate. The reaction mixture is split into two groups, a non-P450 and a P450 group. NADPH is only added to the reaction mixture of the P450 group. An aliquot of samples of P450 group is collected at 0, 10, 30, and 60 min time point, where 0 min time point indicated the time when NADPH is added into the reaction mixture of P450 group. […] Collected aliquots are extracted with acetonitrile solution containing an internal standard. […] The compound concentration in supernatant is measured by LC/MS/MS system.
The half-life value is obtained by plotting the natural logarithm of the peak area ratio of compounds/internal standard versus time. The slope of the line of best fit through the points yields the rate of metabolism (k). This is converted to a half-life value using following equations: Half-life=ln 2/k
A short description of series [4]: Plasma protein binding by equilibrium dialysis, human plasma. It counts as in vitro ADME. The conditions noted are these: pH 7.4, equilibrium dialysis 16 hr at 37° C., % Bound. As for the experimental part:
The plasma protein binding of compounds of invention is measured in human and rat plasma, respectively. A stock solution of the tested compound is prepared in 1 mg/mL in DMSO solution. The stock solution is spiked into the blank plasma to get a final compound concentration at 1 μg/mL for testing. Equilibrium dialysis (The equilibrium dialyzer-96TM MWCO 5K Daltons, Harvard Apparatus) method is used for the testing purpose.
The compound spiked plasma (at […]) and phosphate buffer (0.1 M, pH 7.4), 200 μl each, are added into the opposite sides of the membrane in a 96-well equilibrium dialyzer, respectively. The dialyzer plate is covered and incubated overnight (16 hr) at 37° C. in the 8-plate rotor incubator (Big Shot III 8-plate rotor, Harvard Apparatus). Aliquots (100 μL) are taken from the plasma and the buffer compartments, respectively. The matrix effects are eliminated by adding the same volume of blank plasma into the samples from buffer compartments and adding the same volume of phosphate buffer into the samples from plasma compartments. The samples are extracted by using the regular (3:1) protein precipitation extraction procedure (acetonitrile with internal standard). The supernatants are taken for LC/MS/MS analysis. The percentage of plasma-protein binding can be calculated by using the following method: % Free=[Free Drug/Total Drug]*100=[(Peak Area)buffer/(Peak Area)plasma]*100 % Bound=100−% Free.
For the purpose of Table 4, the plasma protein binding of each compound is expressed as follows: […]
(In equilibrium dialysis free small molecules cross a membrane that holds back macromolecules.)

SMILES strings stand for the structures. pIC50: −log10 of the molar value.

What is called pIC50 is the negative decadic logarithm of the IC50, by convention in mol/L. The term half-life denotes how long it takes for the measured level to halve. A high value points to slow loss. Regarding `C[C@H](C(N)=O)n1ccc2c(NC(=O)CC34CC5CC(CC(C5)C3)C4)c(Cl)ccc2c1=O` [Compound 2], the pIC50 in series [1] is 10.00. For the same compound, the “Oral Bioavailability F (%)” value in series [2] is on record as “+ (0-25% F)”. Moreover, the half-life at 1 μM in series [3] was 0.8 h.

With `C[C@H](C(N)=O)n1ccc2c(NC(=O)Cc3cccc(C(F)(F)F)c3F)c(Cl)ccc2c1=O` [Compound 5, (R)-2-{6-Chloro-5-[2-(2-fluoro-3-trifluoromethyl-phenyl)-acetylamino]-1-oxo-1H-isoquinolin-2-yl}-propionamide], the pIC50 in series [1] is 8.15. In series [2], the “Oral Bioavailability F (%)” value is on record as “+ (0-25% F)”. Besides, the “Half Life” value in series [3] was 1.2 h.

By fraction unbound is commonly meant free concentration divided by total concentration. Higher therefore signals much free substance. With `C[C@H](CO)n1ccc2c(NC(=O)Cc3ccc(C(F)(F)F)cc3)c(Cl)ccc2c1=O` [Compound 10, N-[6-Chloro-2-((R)-2-hydroxy-1-methyl-ethyl)-1-oxo-1,2-dihydro-isoquinolin-5-yl]-2-(4-trifluoromethyl-phenyl)-acetamide], the pIC50 in series [1] was 8.00. Also, in series [2], the “Oral Bioavailability F (%)” value is “++++ (>75% F)”. In addition, the “Half Life” value in series [3] was determined as 3.2 h. In series [4], the fraction unbound at 16 hr, 1 μg/mL is below 0.1.

As to `C[C@H](CO)n1ccc2c(NC(=O)Cc3ccc(C(F)(F)F)c(F)c3)c(Cl)ccc2c1=O` [Compound 11, N-[6-Chloro-2-((R)-2-hydroxy-1-methyl-ethyl)-1-oxo-1,2-dihydro-isoquinolin-5-yl]-2-(3-fluoro-4-trifluoromethyl-phenyl)-acetamide], in series [1], the negative logarithm of the IC50 (pIC50) is 8.30. Also, the “Oral Bioavailability F (%)” value in series [2] is “++++ (>75% F)”. For the same compound, in series [3], the “Half Life” value is 1.6 h. This compound yielded a fraction unbound at 16 hr, 1 μg/mL in series [4] below 0.1.

As for `O=C(Cc1ccc(C(F)(F)F)c(F)c1)Nc1c(Cl)ccc2c(=O)n(CCO)ccc12` [Compound 16, N-[6-Chloro-2-(2-hydroxy-ethyl)-1-oxo-1,2-dihydro-isoquinolin-5-yl]-2-(3-fluoro-4-trifluoromethyl-phenyl)-acetamide], the negative logarithm of the IC50 (pIC50) in series [1] was 8.22. The “Oral Bioavailability F (%)” value in series [2] is “++++ (>75% F)”. The “Half Life” value in series [3] worked out at 3.7 h. For the same compound, the unbound share (fraction unbound) at 16 hr, 1 μg/mL in series [4] was below 0.1.

As to `O=C(Cc1ccc(F)c(C(F)(F)F)c1)Nc1c(Cl)ccc2c(=O)n(CCO)ccc12` [Compound 19, N-[6-Chloro-2-(2-hydroxy-ethyl)-1-oxo-1,2-dihydro-isoquinolin-5-yl]-2-(4-fluoro-3-trifluoromethyl-phenyl)-acetamide], the negative-log IC50 (pIC50) in series [1] is 8.30. Also, the “Oral Bioavailability F (%)” value in series [2] is reported as “+ (0-25% F)”. Moreover, the “Half Life” value in series [3] came out at 1.1 h. Further, the fraction unbound at 16 hr, 1 μg/mL in series [4] is below 0.1.

With `Cc1ccc2c(=O)n([C@H](C)CO)ccc2c1NC(=O)Cc1ccc(Cl)c(F)c1` [Compound 26, 2-(4-Chloro-3-fluoro-phenyl)-N-[2-((R)-2-hydroxy-1-methyl-ethyl)-6-methyl-1-oxo-1,2-dihydro-isoquinolin-5-yl]-acetamide], the pIC50 in series [1] is 8.30. Moreover, the “Oral Bioavailability F (%)” value in series [2] is “+++ (51-75% F)”. In series [3], this compound had a half-life at 1 μM of 1.6 h. This compound also showed a free fraction (fraction unbound) at 16 hr, 1 μg/mL in series [4] of 0.1 to 0.24.

Take `Cc1ccc2c(=O)n([C@H]3CCNC3)ccc2c1NC(=O)Cc1ccc(C(F)(F)F)c(F)c1` [Compound 29, 2-(3-Fluoro-4-trifluoromethyl-phenyl)-N-((S)-6-methyl-1-oxo-2-pyrrolidin-3-yl-1,2-dihydro-isoquinolin-5-yl)-acetamide]: the negative logarithm of the IC50 (pIC50) in series [1] is 7.64. Besides, the “Oral Bioavailability F (%)” value in series [2] is on record as “+ (0-25% F)”. Further, the half-life at 1 μM in series [3] is 3.5 h.

With `Cc1ccc2c(=O)n([C@H](C)CO)ccc2c1C(=O)NCC1CCCCCC1` [Compound 49, 2-((R)-2-Hydroxy-1-methyl-ethyl)-6-methyl-1-oxo-1,2-dihydro-isoquinoline-5-carboxylic acid cycloheptylmethyl-amide], in series [1], the negative logarithm of the IC50 (pIC50) is 9.15. Also, the “Oral Bioavailability F (%)” value in series [2] was “+ (0-25% F)”. This compound also gave a half-life at 1 μM in series [3] of 0.3 h.

For the compound `Cc1ccc2c(=O)n([C@H](C)C(N)=O)ccc2c1NC(=O)Cc1ccc(C(F)(F)F)c(F)c1` [Compound 51, (R)-2-{5-[2-(3-Fluoro-4-trifluoromethyl-phenyl)-acetylamino]-6-methyl-1-oxo-1H-isoquinolin-2-yl}-propionamide], in series [1], the pIC50 is 9.40. In addition, the “Oral Bioavailability F (%)” value in series [2] was “+ (0-25% F)”. The half-life at 1 μM in series [3] is 1.3 h.
